Laboratory results: patent publication US20240217952A1, “TREATMENT OF GRAFT-VERSUS-HOST DISEASE WITH INHIBITORS OF BET FAMILY BDII BROMODOMAIN” (POSEIDON INNOVATION 1, INC., priority 2022, published 2024)

How the values were obtained:
[1] = system: MCP-1 secretion from LPS-stimulated human PBMCs; test: PBMC MCP-1 HTRF Assay; format: cell-based; conditions: FIG. 2
Description: The cryopreserved PBMC cells were thawed in a 37° C. water bath immediately after taking out from liquid nitrogen storage. A sterile pipette was used to transfer the content to sterile […] centrifuge tube containing […] of complete growth medium (Gibico 1640) and centrifuge at 300×g for 10 min. Supernatant was discarded, and cell pellet was resuspended in 10 mL of complete growth media in a sterile 15 mL tube. The cells were rested for 1 h at 37° C. (1×10^6 cells/mL). The cells were spinned down at 300×g for 10 minutes after 1 h. Supernatant was discard, and cell pellet was resuspended in complete growth medium, the cells number and viability were measured by AO/PI staining. In a 384-well white plate, PBMCs at 25k cells/well (15 μl per well) were seeded with Gibico 1640 medium. The compound stock was serial diluted into 10 mM concentrations by 3-fold dilution. […]
For MCP-1 HTRF, 2.5 μl/well MCP-1 donor antibody and […] MCP-1 acceptor antibody were added into 384 well plate, following by centrifuging at 190×g for 1 min and incubating at room temperature for 2 h. The plate was read on the Envision.
The cryopreserved PBMC cells were thawed in a 37° C. water bath immediately after taking out from liquid nitrogen storage. […] Supernatant was discard, and cell pellet was resuspended in complete growth medium, the cells number and viability were measured by AO/PI staining. […]

[2] = system: IL-17A, IL-17F and IL-21 T-cell dependent cytokine secretion; test: Th17 Panel in Human PBMCs (anti-CD3 stimulation, Luminex); format: cell-based; conditions: anti-CD3 coated plates, 48 hours post stimulation, supernatant, FIG. 1
Description: High binding plates were coated with anti-CD3 (Clone UCHT-1, 0.2 ug/well) or its isotype control mIgG1 (0.2 ug/well) and incubated overnight at 4° C. Cryopreserved human PBMCs were seeded into U-bottom 96-well plates (2.4×10^5 cells/well) with 228 ul per well of culture medium (RPMI 1640, 10% HI-FBS, 1% P/S, 2 mM L-glutamine). Cells were incubated at 37° C., 5% CO2 for 1 hour prior to the addition of test compounds. Test compounds were solubilized in DMSO and further diluted to 20× with cell culture medium. Test compounds were added to the PBMCs in volumes of 12 ul in triplicate and incubated at 1 hour at 37° C., 5% CO2.
After the 1 hour incubation, 200 ul of cells ([…]) treated with test compounds or controls were transferred to the prepared anti-CD3 coated plates and incubated at 48 hours at 37° C., 5% CO2. Consequently, the final concentrations of assay controls were 1 ug/mL anti-CD3 (agonist) or 1 ug/mL mIgG1 isotype control, and 0.1% DMSO (vehicle control). At the end of the incubation period, plates were centrifuged at 200×g for 10 minutes. Cell culture supernatants were collected and stored at −80° C. until needed for analysis. Cytokine levels in each sample were determine using Luminex methodology per the manufacturer's protocol using the Human Th17 Magnetic Bead Panel from Milipore Sigma (HTH17MAG-14K).
Human PBMCs were treated with compound I-1 (Example 1) or vehicle control and then subjected to T cell activation mediated by anti-CD3 coated plates. 48 hours-post stimulation, IL-17A, IL-17F and IL-21 supernatant levels were quantified.

[3] = system: imiquimod-induced psoriasis; test: IMQ induced psoriasis mouse model; format: in vivo
Description: Except for the control group, all other groups received a daily topical dose of 60 mg of 5% commercially available IMQ cream on the shaved back for 7 consecutive days. The same amount of Vaseline was applied to the same areas of the animals in the negative control group.
Vehicle and DF-6129 were dosed daily (po) for 8 days, from Day −1 to Day 7. Dosing time: 1 hour prior to IMQ application.
The Psoriasis Area and Severity Index (PASI) scoring system was used to evaluate the severity of skin inflammation of the mouse model. Erythema, scaling, and skin thickness was scored independently from 0-4 as (daily scoring) as below:
Animals were euthanized 4 h post last dosing on day 7 (3 h after applying with imiquimod cream). Whole Blood was collected via cardiac puncture from all group animals. Serum samples were separated by centrifugation at 4° C. at 8000 g for 5 minutes, total 70 samples. All serum samples were stored at −80° C. for IL-17 analysis.
Animals were euthanized 4 h post last dosing on day 7 (3 h after applying with imiquimod cream) and back skin was be collected. The skin tissues were divided into two parts. One half was flash frozen and stored at −80° C. for PCR analysis (IL-17A, IL-17F, IL-22 and IL-23), the other half was fixed in 10% formalin for HE staining and scoring.
All statistical analysis were conducted, and the level of significance was set at P<0.05. The group means and standard deviation were calculated for all measurement parameters as study designed. One-way ANOVA comparisons among the groups was performed with software SPSS 16.0.

[4] = system: Graft vs. Host Disease (GvHD); test: GvHD in irradiated female BALB/c mice engrafted with WBCs from female C57BL/6 mice; format: in vivo, mouse
[5] = system: cGVHD; test: cGVHD models (LP/J→C57BL/6 sclerodermatous; C57BL/6→B10.BR); format: in vivo, mouse; conditions: e.g. 3 mg/kg
Description: Compound I-2 is dosed at various doses, e.g., 3 mg/kg, and decreases incidence and/or […] onset of Graft vs. Host Disease (GvHD) in the LP/J-C57BL/6 model of sclerodermatous cGVHD and/or the C57BL/6→B10.BR cGVHD model that develops multiorgan system disease including bronchiolar obliterans (BO).

[6] = system: Graft vs. Host Disease (GvHD); test: GvHD, combination with CTLA4-Ig/Abatacept; format: in vivo, mouse; conditions: in combination with CTLA4-Ig; e.g. 3 mg/kg
From the text: It has been shown that in vivo infusion of recombinant, soluble CTLA4 fused with Ig heavy chains, as a surrogate ligand used to block CD28/CTLA4 T-cell costimulation, could prevent efficient T-cell activation and thereby reduce graft-versus-host disease (GVHD). Lethally irradiated B10.BR recipients of major histocompatibility complex disparate C57BL/6 donor grafts received intraperitoneal injections CTLA4-Ig in various doses and schedules beginning on day −1 or day 0 of bone marrow transplantation (BMT) (see Blazer et al. 1994).

[7] = system: Graft vs. Host Disease (GvHD); test: GvHD, combination with adoptive transfer of expanded Tregs; format: in vivo, mouse; conditions: in combination with adoptive transfer of expanded Tregs; e.g. 3 mg/kg
From the text: It has been shown that BET inhibitors can be combined with Treg expansion therapy for treatment of diseases involving inflammatory response. Lethally irradiated (8.5 Gy) BALB/c mice received 5.5×10^6 TCD B6-CD45.1 BM cells and spleen cells from expanded (TrED) or unexpanded (TrUD) B6-FoxP3RFP donor mice adjusted to contain either […] or 1×10^6 total T cells (Copsel et al. 2019).

[8] = system: GVHD; conditions: allogeneic animals compared with allogeneic control recipients; FIG. 3; cited from earlier work
[9] = system: acute GVHD; conditions: oral gavage three times weekly, versus vehicle; FIG. 4; cited from earlier work

Cn1ccn(-c2ccc(-c3cc(F)cc(-c4cccc(N5CCN(C(C)(C)C)CC5)c4)c3O)cc2Cl)c1=O [Compound I-1, 1-(3″-(4-(tert-butyl)piperazin-1-yl)-3-chloro-5′-fluoro-2′-hydroxy-[1,1′:3′,1″- terphenyl]-4-yl)-3-methyl-1,3-dihydro-2H-imidazol-2-one]
MCP secretion from LPS-stimulated human PBMCs [1]: inhibited
IL21 T-cell dependent cytokine secretion [2]: inhibited
IL-17A T-cell dependent cytokine secretion [2]: inhibited
IL-17F T-cell dependent cytokine secretion [2]: inhibited
mRNA levels of IL-17A from the back skin ([3]; 10 mg/kg, compared with vehicle treatment alone, FIG. 7A): significantly reduced
mRNA levels of IL-22 from the back skin ([3]; 10 mg/kg, compared with vehicle treatment alone, FIG. 7B): significantly reduced
mRNA levels of IL-23 from the back skin ([3]; 10 mg/kg, compared with vehicle treatment alone, FIG. 7C): significantly reduced
serum IL-17 levels ([3]; compared to vehicle treatment alone, ELISA, day 7, FIG. 6): significantly reduced
total psoriasis (PASI) score ([3]; daily dosing po, compared to vehicle treatment, FIG. 5A): significantly reduced
erythema (PASI) ([3]; daily dosing po, compared to vehicle treatment, FIG. 5B): significant decreases
scaling (PASI) ([3]; daily dosing po, compared to vehicle treatment, FIG. 5C): significant decreases
skin thickening (PASI) ([3]; daily dosing po, compared to vehicle treatment, FIG. 5D): significant decreases

Cc1cc(-c2ccc(-n3ccn(C)c3=O)c(Cl)c2)c(O)c(-c2cccc(N3CCN(C(C)(C)C)CC3)c2)n1 [Compound I-2, 1-(4-(2-(3-(4-(tert-butyl)piperazin-1-yl)phenyl)-3-hydroxy-6-methylpyridin-4-yl)-2-chlorophenyl)-3-methyl-1,3-dihydro-2H-imidazol-2-one]
incidence and/or onset of GvHD ([4]; in combination with Ruxolitinib, compared to Ruxolitinib treatment alone, e.g. 3 mg/kg): decreases incidence and/or delays of onset
incidence and/or onset of GvHD ([4]; monotherapy, various doses e.g. 3 mg/kg): decreases incidence and/or delays onset
incidence and/or onset of GvHD (cGVHD) ([5]; in combination with Ruxolitinib): decreases incidence and/or delays onset
incidence and/or onset of GvHD (cGVHD) ([5]; monotherapy): decreases incidence and/or delayes onset
incidence and/or onset of GvHD [6]: decreases incidence and/or delays onset
incidence and/or onset of GvHD [7]: decreases incidence and/or delays of onset

COc1cc2c(cc1-c1c(C)noc1C)ncc1[nH]c(=O)n([C@H](C)c3ccccn3)c12 [I-BET151]
GVHD severity (clinical score) [8]: significantly reduced
survival rates [8]: improved

Cc1noc(C)c1-c1cnc2c(-c3ccc(C(=O)O)cc3)cn([C@@H](C)c3ccccn3)c2c1 [PLX51107]
survival [9]: significantly improved
